Results as given in patent EP3932395A1, “STABLE EMULSION CONTAINING AN ACTIVE PHARMACEUTICAL INGREDIENT BASED ON N(3-METHYL-2-OXO-2,3-DIHYDROBENZO[D]OXAZOL-5-YL)DODECANAMIDE, PRODUCTION AND USE” (Dr. August Wolff GmbH & Co. KG Arzneimittel, priority 2020, dated 2022).

Experiments:
[1] = Simultaneous Thermal Analysis (STA = TGA + DTA); format: physicochemical; conditions: heated 10°C/min from 30°C to 300°C, nitrogen purge
Method: Simultaneous Thermal analysis (STA = TGA (Thermogravimetric Analysis) + DTA (Differential Thermal Analysis)) was performed in order to test the stability of N-(3 -methyl-2-oxo-2,3-dihydrobenzo[d]oxazol-5-yl)dodecanamide (hereinafter "the API") while heating. Approximately 10 mg of the sample was weighed into a ceramic crucible and placed into the chamber of a Perkin-Elmer STA 600 TGA/DTA analyzer at ambient temperature. The sample was then heated at a rate of 10°C/min from 30°C up to 300°C during which time the change in weight was monitored as well as DTA signal. The purge gas used was nitrogen at a flow rate of 20 cm^3/min.

[2] = Forced degradation studies; format: physicochemical; conditions: 0.05M NaOH, 5 min, room temperature
[3] = Solubility screening with standard cream-base excipients; format: physicochemical; conditions: Ph.Eur. terms, 15°C to 25°C
Method: A solubility screening with standard excipients for preparation of a cream base (glycerol monostearate 60, cetyl alcohol, MCTs, paraffin, macrogol-20-glycerol monostearate, propylene glycol and water) was performed.
The following procedure was used to prepare the samples for solubility screen: • 1. Weigh out the API • 2. Add individual excipient (both solid and liquid excipients) • 3. Slurry either by roller at RT if liquid excipient, or by shaker at 60°C if the excipient was solid • 4. Shake or sonicate occasionally • 5. Check solubility visually, if API not dissolved, add more excipient • 6. Repeat steps 3 to 5 • 7. Samples prepared in steps 1 through 6 were centrifuged and removed from the top for HPLC. • 8. Dilute each sample to 1 mL. Only samples fully dissolved were checked by HPLC.
In the general notice of Ph.Eur. in statements of solubility the terms used have the following significance, referred to at a temperature between 15°C and 25°C.

[4] = Forced degradation studies; format: physicochemical
Source text: Solid samples and sample solutions of N-(3-methyl-2-oxo-2,3-dihydrobenzo[d]oxazol-5-yl)dodecanamide were exposed to stress agents for a defined period and influence of stress on the compound were studied (i.e. the degradation).
The evaluation was expressed as relative percent with respect to t=0 result of unstressed sample (mass balance, % of peak areas).
The stress conditions were adjusted in such way that the degradation varied in a range of approx. 1 to 5% generated impurities.
The following stress conditions were applied: acidic and basic hydrolysis, oxidizing agent, temperature and photolytic conditions.
Solid sample - daylight, laboratory condition (VIS) - exposure time 7 days Solid sample - UV 254 nm, laboratory condition (UV) - exposure time 6 days
Solid sample, 70°C - exposure time 6 days
Sample solution, 3% H2O2, laboratory condition - exposure time 24 h
Sample solution, 0.1M HCI, 50°C - exposure time 24 h
Sample solution, 0.01-0.05M NaOH, 25°C (1M NaOH, 50°C, 1 h) - exposure time 45 min

[5] = Particle size distribution of the API by laser diffraction, pre and post jet-mill micronization; format: physicochemical
Source text: A Sturtevant qualification micronizer was used to reduce the particle size of the API. The mill was operated with tangential flow (i.e. the nitrogen supply and drug are fed in the same direction in the milling chamber). The material of API as received was fed into the jet mill using a Venturi feed system, where air was used to draw the feed material into the milling chamber. A product filter bag was affixed to the outlet of the mill, through which the exhausts and the milled drug substance collects. The milling conditions were set as follows: Grind gas: Dry nitrogen gas; Grind pressure: 80 psi; Feed pressure: 80 psi; Room conditions: Ambient.
A representative sample, dispersed at an adequate concentration in a suitable liquid, is passed through the beam of a monochromatic light source, preferably from a laser. The light scattered by the particles at various angles is measured by a multi-element detector, and numerical values relating to the scattering pattern are then recorded for subsequent analysis. These numerical scattering values are then transformed, using an appropriate optical model and mathematical procedure, to yield the proportion of total volume to a discrete number of size classes forming a volumetric particle size distribution (e.g., dso describes a particle diameter corresponding to 50% of the cumulative undersize distribution, i.e. 50% of the particles have a diameter that is smaller than a threshold value).
The Particle Size Distribution was determined using Malvern Mastersizer MicroPlus particle size analyzer (Malvern Instruments, UK) and 1% (v/v) Tween 80 in deionized water was used as dispersant for this experiment. The equipment was turned on and the following conditions were set: Analysis Model: Polydisperse; Presentation Code: Frauenhofer (5$$D); Stirring speed: 10 o'clock dial position.
The equipment was left to warm up for about 1 hour and approximately 100 mL of the dispersant was added to the sample dispersion unit. Backgrounds were first measured using the dispersant. A fresh sample was prepared by adding -20 to 50 mg API into ∼2 to 3 mL of the dispersant and this was sonicated for ∼5 minutes. The sample was added dropwise into the sample dispersion unit while stirring the dispersant until a suitable obscuration value was achieved and the particle size distribution could be measured. A minimum of three measurements were made for the pre and post micronized samples.
Alternatively, the Malvern Mastersizer 2000 can be used for the determination of Particle Size Distribution. In this case water is used as dispersant.
For upscaling purposes, the micronization process was transferred to a jet mill AS200 (Hosokawa Alpine, Germany) on which the following experiments were performed. Dry nitrogen and air were used as grind gas in order to determine the gas which is more suitable for the micronization process.

[6] = tested on: Human lymphoma U937 cells; test: Cellular uptake of [3H]-AEA; format: cell-based; conditions: U-937, 100 nM AEA, 15 min pre-incubation, 15 min at 37°C
Method: Human lymphoma U937 cells were grown in RPMI 1640 medium (Invitrogen, Basel, Switzerland) supplemented with 10% fetal bovine serum, […] fungizone (amphotericin B), 100 units/mL penicillin, 100 µg/mL streptomycin, and 2 mM L-glutamine (all from Invitrogen) and selected for the cellular AEA uptake assay. 2.5 x 10^6 cells were collected and suspended in 250 µL of RPMI 1640 medium (Invitrogen, Basel, Switzerland) at 37°C using glass silanized vials. Cells were pre-incubated 15 min at 37°C in presence of the test compound in a concentration range of 10^-11 - 10^-5 M or in presence of the same amount (5 µL) of vehicle control (DMSO). Then a mixture of 0.5 nM [^3H]-AEA (60 Ci/mmol) (American Radiolabeled Chemicals, Inc., San Louis, MO, US) and 99.5 nM of nonradioactive AEA (Tocris Cookson Ltd., Bristol, UK) resulting in a final concentration of 100 nM AEA was added and samples were incubated at 37°C for another 15 minutes. The reaction was stopped by rapid filtration over UniFilter®-96 GF/C (Perkin Elmer, Boston MA, US) pre-soaked with PBS 0.25% BSA (w/v). […] Radioactivity was measured using a Perkin Elmer 1450 Microbeta TRILUX liquid scintillation counter. Results were expressed as % of AEA uptake versus cells treated with solvent and the EC50 and IC50 values were calculated from the sigmoidal curves, which were generated using the GraphPad Prism 5.0 (GraphPad Software, San Diego, CA, US).

[7] = first batch (5 g), post micronization, mean ± SD
[8] = first batch (5 g), pre micronization, mean ± SD
[9] = second batch (200 g), post micronization, mean ± SD
[10] = second batch (200 g), pre micronization, mean ± SD

CCCCCCCCCCCC(=O)Nc1ccc2oc(=O)n(C)c2c1 [API, N-(3-methyl-2-oxo-2,3-dihydrobenzo[d]oxazol-5-yl)dodecanamide]
temperature up to which the material remained stable [1]: ~190 °C | purity of the measured sample after basic hydrolysis [2]: 89.50 % A | solubility ([3]; in MCTs): Very slightly soluble (from 1,000 to 10,000) | solubility ([3]; in propylene glycol): Very slightly soluble (from 1,000 to 10,000) | solubility ([3]; in water): Practically insoluble (more than 10,000) | degradation under basic hydrolysis ([4]; 1M NaOH, 50°C, after 1 hour): completely degraded | time for which the stressed sample was stable ([4]; 3% H2O2 solution): at least 24 hours | stability conclusion ([4]; acidic condition): stable | stability conclusion ([4]; alkaline conditions): not stable | stability conclusion ([4]; oxidizing condition (H2O2)): stable | stability conclusion ([4]; photolytic conditions (VIS, UV)): photo stable | mass balance ([4]; sample solution, 0.1M HCl, 50°C, 24 h): 101.2% | mass balance ([4]; sample solution, 3% H2O2, 24 h): 98% | mass balance ([4]; solid sample, 70°C, 6 days): 102.6% | mass balance ([4]; solid sample, UV 254 nm, 6 days, relative to t=0 unstressed sample): 102.4% | mass balance ([4]; solid sample, daylight (VIS), 7 days, relative to t=0 unstressed sample): 100.2% | stability conclusion ([4]; temperature conditions (70°C)): thermo stable | d90 ([5]; 150 g batch, jet mill AS200, normal air as grind gas, post micronization): 7.43 µm | d90 ([5]; 200 g batch, jet mill AS200, dry nitrogen as grind gas, post micronization): 8.92 µm | d10 [5, 7]: 1.11±0.05 µm | d50 [5, 7]: 2.97±0.05 µm | d90 [5, 7]: 6.76±0.36 µm | d10 [5, 8]: 7.53±1.55 µm | d50 [5, 8]: 33.71±18.61 µm | d90 [5, 8]: 106.06±56.69 µm | d90 ([5]; jet mill AS200, batch size 0.913 kg): 4.8 µm | d90 ([5]; jet mill AS200, batch size 1.035 kg): 5.5 µm | d90 ([5]; jet mill AS200, batch size 1.073 kg): 4.4 µm | d90 ([5]; jet mill AS200, batch size 3.60 kg): 7.6 µm | d10 [5, 9]: 1.96±0.11 µm | d50 [5, 9]: 4.98±0.10 µm | d90 [5, 9]: 10.29±0.44 µm | d10 [5, 10]: 26.90±3.65 µm | d50 [5, 10]: 69.71±9.95 µm | d90 [5, 10]: 127.67±18.59 µm | EC50 [6]: 4 nM
